{
  "source": "patent US9820923B2",
  "about": "“Succinate derivatives” (Symrise AG, priority 2013, dated 2017)",
  "key": {"[1]": {"tested_on": "HHFSC (Human Hair Follicle Stem Cells)", "assay": "Cellular in vitro stem cell protection assay (UVB-induced apoptosis, caspase 3/7)", "assay_type": "cell-based", "settings": "light or radiation study, 25 mJ/cm^2 UVB, read-out: Inhibition of UV induced apoptosis [%]", "description": "HHFSC (Human Hair Follicle Stem Cells) isolated from hair follicle bulge (Celprogen) were cultivated in culture ware pre-coated with Human Hair Follicle Stem Cell Extra-cellular Matrix (Celprogen). The cells were incubated 2 h prior to and 16 h after UVB irradiation with test compounds. Cells were irradiated with 25 mJ/cm^2 UVB in the presence of buffer solution. Apoptosis induction was evaluated by caspase 3/7 protein expression (Caspase-Glo 3/7, Promega) and quantified by chemiluminescence measurement.\nThe inhibition of apoptosis induction in the presence of test substances was calculated according to the following equation: […]\nThe abbreviations have the following meanings: • RLU test substance: • RLU of the wells with test substance and with UVB irradiation • RLU control: • RLU of the wells without test substance, but with UVB irradiation • RLU control without UVB: • RLU of the wells without test substance and without UVB irradiation"}, "Heme Oxygenase-1": {"tested_on": "Heme Oxygenase-1", "assay": "Cellular in vitro heme oxygenase-1 expression assay on NHDF (Western blot)", "assay_type": "cell-based, human", "settings": "24 h, 0.0134% b.w.", "description": "NHDF (normal human dermal fibroblasts) cells were disseminated in a 6-well plate in a concentration of 2×10^5 cells/well (DMEM, 10% FCS). After cultivation in fully enriched medium (DMEM, 10% FCS) for 72 h at 37° C. and 5% CO2, the serum content was reduced to 0.1% to synchronize the cell cycle. Various concentrations of the test substances, the negative control (untreated cells) and tert. butylhydrochinon as positive control, are added and incubated for a further 24 h. The maximum concentration of the test substances used corresponds to 0.2 times the value of the IC20 of the cytotoxicity assay. After cell lysis, the protein amount was determined using the Biorad BCA assay. All samples were adjusted to the same protein level before application on a fast Criterion Gel (Biorad) to perform electrophoresis for 20 minutes at 300 V. Thereafter the proteins were transferred to a PVDF membrane on a semi-dry blotter (30 minutes, 25 V). The blotted membrane is blocked for 4 hours in a 5% milk powder solution in TBST at 4° C. After washing, the membrane is incubated with the first antibody solution HO-1 from abcam (1:500 in 1% milk powder in TBST) over night. […] The resulting band pattern is detected with a chemiluminescence sensitive camera system (Vil-ber Loumat). The quantification was done by densitometry, using the Image J freeware software."}, "Hyaluronic acid": {"tested_on": "Hyaluronic acid", "assay": "Cellular in vitro hyaluronic acid assay on NHDF (competitive ELISA)", "assay_type": "cell-based, human", "settings": "72 h", "description": "NHDF (normal human dermal fibroblasts) cells were disseminated in a 96-well microtiter plate in a concentration of 2×10^4 cells/well (DMEM, 10% FCS). After cultivation in fully enriched medium (DMEM, 10% FCS) for 72 h at 37° C. and 5% CO2, the serum content was reduced to 0.1% to synchronize the cell cycle and incubated for further 24 h. Various concentrations of the test substances and TGF-beta1 as internal standard are added and incubated for 72 h. The maximum concentration of the test substances used corresponds to 0.2 times the value of the IC20 of the cytotoxicity assay. Hyaluronic acid is quantified by a competitive ELISA (TECOmedical TE1017).\nThe percent bound for each standard and unknown substance is calculated using the following equation: […]\nA standard curve is generated by plotting the aborptions of the given concentrations in a linear proportion. The gradient of the line is determined and the value of the substances calculated as follows: • 1. value=1/RFU • 2. value=((1. value)−b)/m) • Compound of Hyaluronic acid [ng/ml]=2. value*dilution"}, "[2]": {"tested_on": "Primary human dermal fibroblasts", "assay": "Cellular in vitro DCF assay (intracellular ROS)", "assay_type": "cell-based", "parameters": "unit of the concentration uncertain", "description": "Primary human dermal fibroblasts (Lonza) are disseminated in a 96-well microtiter plate in a concentration of 1×10^4 cells/well (DMEM, 10% FKS). After cultivation in fully enriched medium (DMEM, 10% FCS) for 24 h at 37° C. and 5% CO2, the serum content was reduced to 0.1% for further 24 h to synchronize the cell cycle. Confluence was supposed to be around 70% at the time, the incubation with the test substances began. Various concentrations of the test substances, two backgrounds (untreated cells), control (possible with solvent) and Trolox as internal standard (1000 μM) were applied to the cells in DMEM and incubated for further 18-20 h. […], 100 μl H2DCF-DA-solution (2,7-Dichlorfluorescein, 10 μM) incl. DAPI (1:1000) was added to all samples (excluded the background-control) and incubated for one hour to de-esterify the H2DCF-DA by cellular esterases. The resulting H2DCF was thereby trapped inside the cell. After the incubation, the cells were washed and the prooxidant challenge was set (1 mM, 1 h). The resulting fluorescence was read at Ex 504 nm; Em 524 nm. An increased level of ROS (reactive oxygen species) led to an increased amount of fluorescence.\nResults are mean values from 2 independent experiments with quadruple determinations each.\nThe inhibition of the oxidation in the presence of test substances was calculated according to the following equation: […]\nThe abbreviations have the following meanings: • RFU DAPI: Relative fluorescence units (Ex 380/20, Em 440/40) of the wells with test substance, DAPI and DCF treatment, with cells • RFU DCF: Relative fluorescence units (Ex 485/20, Em 528/20) of the wells with test substance, DAPI and DCF treatment, with cells • RFU control: Relative fluorescence units of the wells without test substance, DAPI and DCF treatment, with cells (The control was calculated like the other samples.) • RFU BLANK: Relative fluorescence units of the wells without test substance, without DAPI and DCF treatment but with cells"}, "[3]": {"tested_on": "B16V mouse melanoma cells", "assay": "Depigmentation effect on melanoma cell cultures", "assay_type": "cell-based", "settings": "0.6 mM tyrosine and 10 nM MSH, 96 h, read-out: IC50 (Inhibition of pigmentation)", "description": "B16V mouse melanoma cells are disseminated in a 96-well micro-titre plate in a concentration of 7.5×10^3 cells/well. After cultivation for 24 h at 37° C. and 5% CO2 in RPMI medium, enriched with 10% foetal calf serum, various concentrations of the test substances and 0.6 mM tyrosine and 10 nM-MSH (-melanocyte stimulating hormone) are added and incubated for a further 96 h. The maximum concentration of the test substances used corresponds to 0.1 times the value of the IC20 value of the cytotoxicity assay. Only tyrosine and -MSH are added to the controls. After incubation, sodium hydroxide solution (final concentrations: 1 M) is added to the culture medium and the absorption (A) is measured after 3 h at 400 nm.\nThe inhibition of pigmentation in the presence of the test compounds was calculated using the following equation: Inhibition of pigmentation (%)=100−[(Atest compound/Acontrol)×100] wherein • Atest compound=absorption of the wells with test substance and with cells • Acontrol=absorption of the wells without test substance, but with cells\nFrom the inhibition of pigmentation (%) in a series of dilutions of test compounds, the IC50 for each test compound is calculated. This is the concentration of a test compound at which pigmentation is inhibited by 50%."}},
  "data": [
    {"compound": "CC1CC(OC(=O)CCC(=O)N(C)C)CC(C)(C)C1", "note": "(stereo not shown) [S7a/S7b**]", "values": [
      {"measurement": "inhibition at 20 µM", "setting": "[1]; 0.02 mM", "value": 5, "unit": "%"},
      {"measurement": "inhibition at 200 µM", "setting": "[1]; 0.20 mM", "value": 32, "unit": "%"},
      {"measurement": "Up-regulation (HO1-Amount relative to control)", "setting": "Heme Oxygenase-1", "value": "14.5-fold"},
      {"measurement": "Stimulation (Hyaluronic acid stimulation relative to control)", "setting": "Hyaluronic acid; 0.00012 % b.w.", "value": 34.4, "unit": "%"},
      {"measurement": "Stimulation (Hyaluronic acid stimulation relative to control)", "setting": "Hyaluronic acid; 0.00120 % b.w.", "value": 67.3, "unit": "%"},
      {"measurement": "Intracellular ROS reduction [%]", "setting": "[2]; concentration 1 (unit uncertain)", "value": "−2", "unit": "%"},
      {"measurement": "Intracellular ROS reduction [%]", "setting": "[2]; concentration 10 (unit uncertain)", "value": 11, "unit": "%"},
      {"measurement": "Intracellular ROS reduction [%]", "setting": "[2]; concentration 50 (unit uncertain)", "value": 16.3, "unit": "%"},
      {"measurement": "Intracellular ROS reduction [%]", "setting": "[2]; concentration 100 (unit uncertain)", "value": 19.5, "unit": "%"},
      {"measurement": "IC50", "setting": "[3]", "value": 18.4, "unit": "µM"}
    ]}
  ]
}
